{"source": "paper PMC9246773", "about": "“Assessing the Activity of Antimicrobial Peptides Against Common Marine Bacteria Located in Rotifer (Brachionus plicatilis) Cultures” (Probiotics and Antimicrobial Proteins, 2022)", "key": {"[1]": {"system": "Escherichia coli (ATCC 25922)", "assay_type": "cell-based", "conditions": "ATCC 25922, 48 h", "in_short": "(§1)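 2-fold peptide dilutions (0.125 - 65µg mL^-1), ~5 × 10^5 CFU mL^-1, MHB at 25‰ or 0‰ salinity; ± acetic acid (0.01% w/v, 0.2% BSA) diluent. 25 °C, read 24 and 48 h; visual MIC at 48 h, duplicates.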"}, "Shewanella sp. [2]": {"system": "Shewanella sp.", "assay_type": "cell-based", "conditions": "48 h", "in_short": "as §1"}, "Vibrio alginolyticus [3]": {"system": "Vibrio alginolyticus", "assay_type": "cell-based", "conditions": "48 h", "in_short": "as §1"}, "[4]": {"system": "Vibrio harveyi (ATCC 35084)", "assay_type": "cell-based", "conditions": "ATCC 35084, 48 h", "in_short": "as §1"}, "Vibrio harveyi [5]": {"system": "Vibrio harveyi", "assay_type": "cell-based", "conditions": "48 h", "in_short": "as §1"}, "Vibrio rotiferianus [6]": {"system": "Vibrio rotiferianus", "assay_type": "cell-based", "conditions": "48 h", "in_short": "as §1"}, "Vibrio scophthalmi [7]": {"system": "Vibrio scophthalmi", "assay_type": "cell-based", "conditions": "48 h", "in_short": "as §1"}, "[8]": {"system": "Escherichia coli (ATCC 25922)", "assay_type": "cell-based", "conditions": "ATCC 25922, 48 h", "in_short": "(§2)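 Broth microdilution MIC of peptides in Mueller-Hinton broth (MHB) at 0‰ and 25‰ artificial-seawater salinity, twofold dilutions over 0.125–65 µg mL^−1, inoculum ~5 × 10^5 CFU mL^−1 from 0.5 McFarland suspensions. T. discolor and Pseudoalteromonas sp. were not tested at 0‰. T. discolor was tested in diluted MHB (1:7 in 25‰ seawater).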", "remark": "listed apart in the source"}, "Pseudoalteromonas sp.": {"system": "Pseudoalteromonas sp.", "assay_type": "cell-based", "conditions": "48 h", "in_short": "as §2"}, "Shewanella sp. [9]": {"system": "Shewanella sp.", "assay_type": "cell-based", "conditions": "48 h", "in_short": "as §2", "remark": "listed apart in the source"}, "Tenacibaculum discolor": {"system": "Tenacibaculum discolor", "assay_type": "cell-based", "conditions": "48 h", "in_short": "as §2"}, "Vibrio alginolyticus [10]": {"system": "Vibrio alginolyticus", "assay_type": "cell-based", "conditions": "48 h", "in_short": "as §2", "remark": "listed apart in the source"}, "[11]": {"system": "Vibrio harveyi (ATCC 35084)", "assay_type": "cell-based", "conditions": "ATCC 35084, 48 h", "in_short": "as §2", "remark": "listed apart in the source"}, "Vibrio harveyi [12]": {"system": "Vibrio harveyi", "assay_type": "cell-based", "conditions": "48 h", "in_short": "as §2", "remark": "listed apart in the source"}, "Vibrio rotiferianus [13]": {"system": "Vibrio rotiferianus", "assay_type": "cell-based", "conditions": "48 h", "in_short": "as §2", "remark": "listed apart in the source"}, "Vibrio scophthalmi [14]": {"system": "Vibrio scophthalmi", "assay_type": "cell-based", "conditions": "48 h", "in_short": "as §2", "remark": "listed apart in the source"}, "[15]": {"assay": "Test whether the AMPs precipitated in MHB and required acetic acid adjustments", "assay_type": "physicochemical", "conditions": "MIC two or more dilutions higher without acetic acid than with acetic acid = requires acetic acid adjustments; MHB 0‰", "protocol": "The protocol was followed to determine the minimum inhibitory concentration (MIC) of the selected peptides. Two MIC assays were performed, firstly to determine whether each peptide precipitated in MHB and thereby required acetic acid adjustments (supplementary materials) and secondly, to determine the antimicrobial activity of each peptide in artificial seawater (25‰). Peptide stock solutions (1.3 mg mL^−1) were made by diluting the peptides in sterile deionised water. MHB was made with deionised water to reach a concentration of approaching 0‰ and artificial sea salts (Sigma-Aldrich® S9883) to reach a salinity of 25‰.\nA broth microdilution protocol was followed to test whether the AMPs precipitated in MHB. The isolates T. discolor and Pseudoalteromonas were excluded from this assay because they required marine salts for growth. The peptides HHC10 and HHC36 previously required acetic acid adjustments according to [63] and were not trialled in this assay. To test if peptides required acetic acid, each peptide was diluted 1:2 in acetic acid (0.02% acetic acid w/v, containing 0.4% BSA) solution. […] The 96-well plates were incubated at 25 °C and read at 24 and 48 hours. The MIC was visually determined using a Sensititre™ Vizion™ Digital MIC Viewing System (Thermo Scientific™), and the lowest AMP concentration that had no bacterial growth was recorded as the MIC after 48 hours. […]"}, "[16]": {"system": "MRSA and P. aeruginosa bacterial infections", "conditions": "MRSA and P. aeruginosa infections in mice and nematodes, respectively; ref [23], [64], [65]; cited from earlier work", "protocol": "The MIC assay under high salt concentration identified these peptides as being effective against V. rotiferianus and T. discolor at a high peptide concentration (65 µg mL^−1), however, the two bacterial species were not identified in the control rotifer culture, and the reduction of their presence cannot be quantified. In relation to other AMP research, the majority of AMPs are currently teste ..."}}, "note": "Non-standard residues stand in square brackets, D forms with d. Residues, ends and D or L forms follow the SMILES beside them.", "data": [{"compound": "CC[C@@H](C)[C@@H](NC(=O)[C@@H](C)NC(=O)[C@@H](CCCNC(=N)N)NC(=O)[C@@H](Cc1c[nH]c2ccccc12)NC(=O)[C@@H](CCC(N)=O)NC(=O)[C@H](N)C(C)C)C(=O)N[C@H](CCCNC(=N)N)C(=O)N[C@@H](C(=O)N[C@H](CCCNC(=N)N)C(=O)N[C@@H](C(=O)N[C@@H](C(=O)N[C@H](CCCNC(=N)N)C(N)=O)[C@H](C)CC)C(C)C)C(C)C", "note": "[DJK5] (H-[dV][dQ][dW][dR][dA][dI][dR][dV][dR][dV][dI][dR]-NH2; N-terminus and C-terminus assumed)", "values": [{"measurement": "MIC E. coli ATCC 25922, Acetic", "setting": "[1]", "result": 4.06, "unit": "µg/mL"}, {"measurement": "MIC E. coli ATCC 25922, No acetic", "setting": "[1]", "result": 8.13, "unit": "µg/mL"}, {"measurement": "MIC Shewanella sp., Acetic", "setting": "Shewanella sp. [2]", "result": 1.02, "unit": "µg/mL"}, {"measurement": "MIC Shewanella sp., No acetic", "setting": "Shewanella sp. [2]", "result": 1.02, "unit": "µg/mL"}, {"measurement": "MIC V. alginolyticus, Acetic", "setting": "Vibrio alginolyticus [3]", "result": 4.06, "unit": "µg/mL"}, {"measurement": "MIC V. alginolyticus, No acetic", "setting": "Vibrio alginolyticus [3]", "result": 4.06, "unit": "µg/mL"}, {"measurement": "MIC V. harveyi ATCC 35084, Acetic", "setting": "[4]", "result": 4.06, "unit": "µg/mL"}, {"measurement": "MIC V. harveyi ATCC 35084, No acetic", "setting": "[4]", "result": 2.03, "unit": "µg/mL"}, {"measurement": "MIC V. harveyi, Acetic", "setting": "Vibrio harveyi [5]", "result": 2.03, "unit": "µg/mL"}, {"measurement": "MIC V. harveyi, No acetic", "setting": "Vibrio harveyi [5]", "result": 4.06, "unit": "µg/mL"}, {"measurement": "MIC V. rotiferianus, Acetic", "setting": "Vibrio rotiferianus [6]", "result": 1.02, "unit": "µg/mL"}, {"measurement": "MIC V. rotiferianus, No acetic", "setting": "Vibrio rotiferianus [6]", "result": 1.02, "unit": "µg/mL"}, {"measurement": "MIC V. scophthalmi, Acetic", "setting": "Vibrio scophthalmi [7]", "result": 0.51, "unit": "µg/mL"}, {"measurement": "MIC V. scophthalmi, No acetic", "setting": "Vibrio scophthalmi [7]", "result": 0.51, "unit": "µg/mL"}, {"measurement": "MIC E. coli ATCC 25922, salinity 0‰", "setting": "[8]", "result": 2.03, "unit": "µg/mL"}, {"measurement": "MIC E. coli ATCC 25922, salinity 25‰", "setting": "[8]", "result": "> 65", "unit": "µg/mL"}, {"measurement": "MIC Pseudoalteromonas sp., salinity 25‰", "setting": "Pseudoalteromonas sp.", "result": "> 65", "unit": "µg/mL"}, {"measurement": "MIC Shewanella sp., salinity 0‰", "setting": "Shewanella sp. [9]", "result": 2.03, "unit": "µg/mL"}, {"measurement": "MIC Shewanella sp., salinity 25‰", "setting": "Shewanella sp. [9]", "result": "> 65", "unit": "µg/mL"}, {"measurement": "MIC T. discolor, salinity 25‰", "setting": "Tenacibaculum discolor", "result": "> 65", "unit": "µg/mL"}, {"measurement": "MIC V. alginolyticus, salinity 0‰", "setting": "Vibrio alginolyticus [10]", "result": 4.06, "unit": "µg/mL"}, {"measurement": "MIC V. alginolyticus, salinity 25‰", "setting": "Vibrio alginolyticus [10]", "result": "> 65", "unit": "µg/mL"}, {"measurement": "MIC V. harveyi ATCC 35084, salinity 0‰", "setting": "[11]", "result": 2.03, "unit": "µg/mL"}, {"measurement": "MIC V. harveyi ATCC 35084, salinity 25‰", "setting": "[11]", "result": "> 65", "unit": "µg/mL"}, {"measurement": "MIC V. harveyi, salinity 0‰", "setting": "Vibrio harveyi [12]", "result": 4.06, "unit": "µg/mL"}, {"measurement": "MIC V. harveyi, salinity 25‰", "setting": "Vibrio harveyi [12]", "result": "> 65", "unit": "µg/mL"}, {"measurement": "MIC V. rotiferianus, salinity 0‰", "setting": "Vibrio rotiferianus [13]", "result": 1.02, "unit": "µg/mL"}, {"measurement": "MIC V. rotiferianus, salinity 25‰", "setting": "Vibrio rotiferianus [13]", "result": "> 65", "unit": "µg/mL"}, {"measurement": "MIC V. scophthalmi, salinity 0‰", "setting": "Vibrio scophthalmi [14]", "result": 0.51, "unit": "µg/mL"}, {"measurement": "MIC V. scophthalmi, salinity 25‰", "setting": "Vibrio scophthalmi [14]", "result": "> 65", "unit": "µg/mL"}, {"measurement": "requirement for acetic acid (precipitation in MHB)", "setting": "[15]", "result": "did not"}, {"measurement": "reduction of bacterial infections in terrestrial organisms", "setting": "[16]", "result": "successfully reduced"}]}]}
